Reference: US20250206751A1, “HETEROCYCLIC COMPOUND FOR INDUCING DEGRADATION OF G12D MUTANT KRAS PROTEIN” (Astellas Pharma Inc., priority 2022, published 2025)

How the values were obtained:
KRAS G12D protein = target: T1, KRAS G12D protein (Homo sapiens, UniProt P01116, G12D); test: KRAS degradation activity by Cell ELISA in AsPC-1 (Test Example 1); format: cell-based; details: AsPC-1 cells, cultured overnight with compound, corrected with β-actin, read-out: DC50 (50% degradation concentration of the amounts of KRAS)
T1 construct: host or cells: AsPC-1
Protocol: Test Example 1: Evaluation of KRAS Degradation Activity on Human G12D Mutant KRAS-Positive Pancreatic Cancer Line AsPC-1 (CRL-1682; ATCC)
The KRAS degradation activity of test compounds was evaluated by measuring the expression levels of KRAS G12D protein by Cell ELISA.
AsPC-1 cells were seeded at 20 μL per well on 384-well plates (from Greiner bio-one) to give 2.0×10^4 cells per well. As for the cell culture conditions, RPMI 1640 (from Sigma-Aldrich) medium containing 10% fetal bovine serum (from Cytiva) was used in the presence of 5% CO2 at 37° C.
The next day, the test compounds (10 points having final concentrations in the range of 10 μM to 0.3 nM) and DMSO (from FUJIFILM Wako Pure Chemical Corporation), which was the solvent for the test compounds, as a negative control were diluted 500-fold with a fresh medium and were added at 20 μL per well. The cells were cultured overnight.
The next day, the culture supernatant was removed, and 4% paraformaldehyde phosphate buffer (from FUJIFILM Wako Pure Chemical Corporation) was added at 20 μL per well. The plates were allowed to stand for 30 minutes at room temperature to thus immobilize the cells. Then, the supernatant was removed, and 0.1% Triton X-100 (from Amersham Biosciences)-containing Phosphate buffered saline (PBS; from FUJIFILM Wako Pure Chemical Corporation) was added at 20 μL per well. After allowing to stand for 10 minutes at room temperature, the supernatant was removed. PBS was added at 25 μL per well, and the supernatant was removed to thus wash each well. The washing was performed twice in total. Next, the supernatant was removed, and 0.5% sodium dodecyl sulfate (SDS; from Invitrogen)-containing PBS was added at 20 μL per well. After allowing to stand at room temperature for 10 minutes, the supernatant was removed by a centrifugal operation (using a centrifugal dehydrator machine, the supernatant was removed by the same method hereinafter). PBS was added at 25 μL per well, and the supernatant was removed to thus wash each well. The washing was performed twice in total. The supernatant was removed, and blocking solution (Intercept Blocking Buffer; from Li-COR Biosciences) was added at 20 μL per well. After allowing to stand for 30 minutes at room temperature, the supernatant was removed, and a solution obtained by diluting anti-β-actin antibody (Anti-beta Actin antibody [mAbcam 8226]-Loading Control; from abcam) 1,000-fold with blocking solution and a solution obtained by diluting anti-Ras (G12D Mutant Specific) antibody (Ras (G12D Mutant Specific) (D8H7) Rabbit mAb #14429; from Cell Signaling Technology) and anti-β-actin antibody (from abcam) 1,000-fold with blocking solution were respectively added to positive control wells and the other wells at 20 μL per well as a primary antibody. The plate was allowed to stand overnight at 4° C.
The next day, the supernatant was removed. PBS was added at 25 μL per well, and the supernatant was removed to thus wash each well. The washing was performed twice in total. The supernatant was removed, and a solution obtained by diluting Donkey anti-Mouse IgG H&L (IRDye 680RD) (from Li-COR Biosciences) and Goat anti-Rabbit IgG H&L (IRDye 800CW) (from Li-COR Biosciences) 1,000-fold with blocking solution was added at 20 μL per well as a secondary antibody. After allowing to stand for 1 hour at room temperature, the supernatant was removed. PBS was added at 25 μL per well, and the supernatant was removed to thus wash each well. The washing was performed twice in total. After removing the supernatant, the plate was dried with air at room temperature for 2 hours or more, and the 700 nm and 800 nm fluorescent signals were measured with Aerius (from Li-COR Biosciences). […]

[1] = test system: phosphorylation of threonine 202 (Thr202) and tyrosine 204 (Tyr204) of ERK; test: ERK phosphorylation inhibitory effect by Cell ELISA in AsPC-1 (Test Example 2); format: cell-based, human; details: Homo sapiens, ASPC1, AsPC-1 cells, cultured overnight with compound; 1 μM trametinib taken as 0%
Protocol: Test Example 2: Evaluation of ERK Phosphorylation Inhibitory Effect on Human G12D Mutant KRAS-Positive Pancreatic Cancer Line AsPC-1
The ERK phosphorylation inhibitory effect of test compounds was evaluated by measuring phosphorylation of threonine 202 (Thr202) and tyrosine 204 (Tyr204) of ERK located downstream of the KRAS signal by Cell ELISA.
AsPC-1 cells were seeded on 384-well plates at 36 μL/well to give 2.0×10^4 cells per well. As for the cell culture conditions, RPMI 1640 medium containing 10% fetal bovine serum was used in the presence of 5% CO2 at 37° C.
The next day, the test compounds (10 points having final concentrations in the range of 10 μM to 0.3 nM), trametinib (MEK inhibitor) of a final concentration of 1 μM as positive control and DMSO, which was the solvent for the test compounds, as negative control were diluted 100-fold with a fresh medium and were added at 4 μL per well. The cells were cultured overnight. After culturing, 30% glyoxal solution (40% glyoxal [from Nacalai Tesque] was diluted with PBS) was quickly added at 30 μL per well, and the plate was allowed to stand for 60 minutes at room temperature to thus immobilize the cells. Then, the plate was centrifuged to remove the supernatant (using a centrifugal dehydrator machine, the supernatant was removed by the same method hereinafter), and 0.1% Triton X-100-containing PBS was added at 20 μL per well. After allowing to stand for 10 minutes at room temperature, the supernatant was removed, and the same operation was further repeated. Next, 0.5% SDS-containing PBS was added at 20 μL per well, and after allowing to stand at room temperature for 30 minutes, the supernatant was removed. Subsequently, blocking solution (Intercept Blocking Buffer) was added at 20 μL per well, and the plate was allowed to stand for 1 hour at room temperature. The supernatant was removed, and an ERK (Thr202/Tyr204) phosphorylation antibody (Phospho-p44/42 MAPK (Erk 1/2) (Thr202/Tyr204) (D13.14.4E) XP Rabbit mAb; from Cell Signaling Technology) diluted 2,500-fold with blocking solution was added at 15 μL per well as a primary antibody. The plates were allowed to stand at 4° C. overnight.
The next day, the supernatant was removed. 0.05% Tween-20 (from Thermo Fisher Scientific)-containing PBS was added at 50 μL per well, and the supernatant was removed to thus wash each well. The washing was performed three times in total. After washing, Goat anti-Rabbit IgG H&L (IRDye 800CW) diluted 1,000-fold with blocking solution was added at 15 μL per well as a secondary antibody, and the plates were allowed to stand for 1 hour at room temperature. The supernatant was removed, and each well was washed three times with 0.05% Tween-20-containing PBS in the same manner as after the primary antibody reaction. After removing the supernatant, the plates were dried with air at room temperature for 3 hours or more, and the 800-nm fluorescent signals were measured with Aerius.
With the signaling value at the time of addition of DMSO taken as 100% and with the signaling value at the time of addition of 1 μM trametinib taken as 0%, the 50% inhibitory concentration values (IC50) were calculated by Sigmoid-Emax nonlinear regression analysis.

[2] = test system: human G12D mutant KRAS-positive pancreatic cancer line AsPC-1; test: Non-anchorage-dependent cell growth inhibition, spheroid 3D cell culture (Test Example 3); format: cell-based; details: Homo sapiens, ASPC1, 144 h, AsPC-1 spheroid 3D culture, 6 days, CellTiter Glo 2.0
Protocol: Test Example 3: Evaluation of Non-Anchorage-Dependent Cell Growth Inhibitory Effect on Human G12D Mutant KRAS-Positive Pancreatic Cancer Line AsPC-1
The non-anchorage-dependent cell growth inhibitory effect of test compounds was evaluated by spheroid 3D cell culture.
AsPC-1 cells were seeded on low-cell-adhesive round bottom 384-well plates (PrimeSurface: from Sumitomo Bakelite) at 36 μL/well to give 5×10^2 cells per well. As for the cell culture conditions, RPMI 1640 medium containing 10% fetal bovine serum was used in the presence of 5% CO2 at 37° C.
The next day, the test compounds (10 or 6 points having final concentrations in the range of 10 μM to 0.3 nM) and DMSO, which was the solvent for the test compounds, as a negative control were diluted 100-fold with a fresh medium and were added at 4 μL per well. After culturing in the presence of 5% CO2 at 37° C. for 6 days, CellTiter Glo 2.0 (from Promega) was added at 20 μL per well. After stirring with a plate mixer (from FINEPCR) at room temperature for 1 hour, the luminescent signals were measured with ARVO X3 (from PerkinElmer).
With the signaling value in treatment with DMSO taken as 100% and with the signaling value in the medium alone without cells taken as 0%, the 50% inhibitory concentration values (IC50) were calculated by Sigmoid-Emax nonlinear regression analysis.

T1 sequence (P01116 1-188 isoform P01116-2 G12D): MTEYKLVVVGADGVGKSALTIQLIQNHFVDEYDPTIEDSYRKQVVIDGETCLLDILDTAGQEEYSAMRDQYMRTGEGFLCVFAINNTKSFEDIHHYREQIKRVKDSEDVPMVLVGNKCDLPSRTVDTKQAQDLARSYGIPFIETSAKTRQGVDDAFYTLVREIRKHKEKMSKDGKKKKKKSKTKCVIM

DC50 (KRAS G12D protein)	IC50 [1]	IC50 [2]	Compound
0.02 µM	0.009 µM	0.092 µM	Cc1ncsc1-c1ccc([C@H](CO)NC(=O)[C@@H]2C[C@@H](O)CN2C(=O)[C@H](C(C)C)n2cc(-c3ccc(COc4c(-c5c(C)c(F)cc6[nH]ncc56)c(C5CC5)cc5c(OC6CNC6)nc(OC6CCOCC6)nc45)cc3)nn2)cc1 (atropisomer, axis not shown; (M)) [Example 2, (4R)-1-[(2S)-2-(4-{4-[({(7M)-4-[(azetidin-3-yl)oxy]-6-cyclopropyl-7-(6-fluoro-5-methyl-1H-indazol-4-yl)-2-[(oxan-4-yl)oxy]quinazolin-8-yl}oxy)methyl]phenyl}-1H-1,2,3-triazol-1-yl)-3-methylbutanoyl]-4-hydroxy-N-{(1R)-2-hydroxy-1-[4-(4-methyl-1,3-thiazol-5-yl)phenyl]ethyl}-L-prolinamide]
0.025 µM	0.006 µM	0.005 µM	CO[C@H](CF)COc1nc(N(C)[C@H]2CCNC2)c2cc(C3CC3)c(-c3c(C)c(F)cc4[nH]ncc34)c(OCc3ccc(-c4cn([C@H](C(=O)N5C[C@H](O)C[C@H]5C(=O)N[C@@H](CO)c5ccc(-c6scnc6C)cc5)C(C)C)nn4)cc3)c2n1 (atropisomer, axis not shown) [Example 46]
0.508 µM	0.1 µM	0.073 µM	Cc1ncsc1-c1ccc([C@H](CO)NC(=O)[C@@H]2C[C@@H](O)CN2C(=O)[C@H](C(C)C)n2cc(-c3ccc(COc4c(-c5c(C)c(F)cc6[nH]ncc56)c(C5CC5)cc5c(N(C)[C@H]6CCNC6)nc(OC[C@H]6CCN(C)C6)nc45)cc3)nn2)cc1 (atropisomer, axis not shown) [Example 18]
0.025 µM	0.032 µM	0.01 µM	COCC1(COc2nc(N(C)[C@H]3CCNC3)c3cc(C4CC4)c(-c4c(C)c(F)cc5[nH]ncc45)c(OCc4ccc(-c5cn([C@H](C(=O)N6C[C@H](O)C[C@H]6C(=O)N[C@@H](CO)c6ccc(-c7scnc7C)cc6)C(C)C)nn5)cc4)c3n2)CC1 (atropisomer, axis not shown) [Example 49]
0.02 µM	0.004 µM	0.004 µM	CO[C@@H](C)COc1nc(N(C)[C@H]2CCNC2)c2cc(C3CC3)c(-c3c(C)c(F)cc4[nH]ncc34)c(OCc3ccc(-c4cn([C@H](C(=O)N5C[C@H](O)C[C@H]5C(=O)N[C@@H](CO)c5ccc(-c6ocnc6C)cc5)C(C)C)nn4)cc3)c2n1 (atropisomer, axis not shown) [Example 14]
0.018 µM	0.008 µM	0.006 µM	Cc1ncsc1-c1ccc([C@H](CO)NC(=O)[C@@H]2C[C@@H](O)CN2C(=O)[C@H](C(C)C)n2cc(-c3ccc(COc4c(-c5c(C)c(F)cc6[nH]ncc56)c(C5CC5)cc5c(N(C)[C@H]6CCNC6)nc(OC[C@@H]6CCCO6)nc45)cc3)nn2)cc1 (atropisomer, axis not shown; (M)) [Example 10, (4R)-1-[(2S)-2-{4-[4-({[(7M) 6-cyclopropyl-7-(6-fluoro-5-methyl-1H-indazol-4-yl)-4-{methyl[(3S)-pyrrolidin-3-yl]amino}-2-{[(2S)-oxolan-2-yl]methoxy}quinazolin-8-yl}oxy}methyl)phenyl]-1H-1,2,3-triazol-1-yl}-3-methylbutanoyl]-4-hydroxy-N-{(1R)-2-hydroxy-1-[4-(4-methyl-1,3-thiazol-5-yl)phenyl]ethyl}-L-prolinamide]
0.053 µM	0.021 µM	0.013 µM	Cc1ncsc1-c1ccc([C@H](CO)NC(=O)[C@@H]2C[C@@H](O)CN2C(=O)[C@H](C(C)C)n2cc(-c3ccc(COc4c(-c5c(C)c(F)cc6[nH]ncc56)c(C5CC5)cc5c(N(C)[C@H]6CCNC6)nc(OCC(C)C)nc45)cc3)nn2)cc1 (atropisomer, axis not shown) [Example 34]
0.043 µM	0.031 µM	0.017 µM	CO[C@@H](C)COc1nc(N(C)[C@H]2CCNC2)c2cc(C3CC3)c(-c3c(C)c(F)cc4[nH]ncc34)c(OCc3ccc(-c4cn([C@H](C(=O)N5C[C@H](O)C[C@H]5C(=O)N[C@@H](CO)c5ccc(-c6scnc6C)cc5)C(C)C)nn4)c(F)c3)c2n1 (atropisomer, axis not shown; (M)) [Example 44]
